A short description of data set [1]: ZEN concentrations and carryover factor in intestinal tissues and liver of pre-pubertal gilts exposed per os (HPLC). The format is in vivo. As to conditions: gilts given ZEN 40 μg/kg BW daily per os, 42 days; detection limits 0.003 µg·g^−1 α-ZEL, 0.002 µg·g^−1 β-ZEL. On the procedure:
The animals were divided into an experimental group (E, n = 18) and a control group (C, n = 21). Group E animals were orally administered ZEN at 40 μg/kg BW. Group C pigs were fed a placebo. The animals were fed complete diets in a restricted feeding regimen (Table 1). The daily dose of ZEN (40 µg/kg BW) was administered to each animal individually, which corresponds to exposure to 957–1014 µg ZEN/kg of a complete diet, depending on daily feed intake. Zearalenone was biosynthesized, purified and standardized by the Department of Chemistry of the Poznań University of Life Sciences. The experiment covered a period of 42 days. The mycotoxin was administered per os daily, in gelatine capsules before the morning feeding. The ZEN dose was adjusted to the body weight of the experimental animals. The mycotoxin was administered in capsules to prevent problems associated with uneven feed intake. Mycotoxin samples were diluted in 300 μL of 96% ethyl alcohol (96% ethyl alcohol, SWW 2442-90, Polskie Odczynniki Chemiczne SA, Gliwice, Poland) to the required dose level (based on body weight). Final solutions were stored at room temperature for 12 h to evaporate the solvent. The animals were weighed every 7 days to update mycotoxin doses for each gilt. Three animals from the experimental group and the control group each were sacrificed on Days 1, 7, 14, 21, 28, 35 and 42 (a total of 6 gilts in each week of exposure), excluding day 1, when only 3 control group animals were scarified. Every week, tissue samples were collected from the porcine gastrointestinal tract (duodenum, first and middle sections, jejunum, ileum, cecum, ascending colon, transverse colon, descending colon, middle section, and the liver, left lobe). Tissue samples were collected from the whole intestinal cross-sections.
Post-mortem tissue samples were collected from the duodenum, jejunum, ileum, cecum, ascending colon, transverse colon, descending colon and the liver after rinsing with phosphate buffer. Pure tissues were stored at −80 °C until shredding and extraction.
Tissue samples (2 g) were homogenized with 9 cm^3 of methanol for 4 min; they were transferred to centrifuge tubes with a minimal amount of the sediment, and the remainder was combined with 5 cm^3 of methanol and repeatedly homogenized. The extracts were combined and centrifuged for 10 min. The supernatant was transferred to a graduated test tube; its volume was read from the scale, and it was evaporated under a stream of nitrogen at a temperature of 60 °C to 0.1–0.2 cm^3 of water. The evaporated product was combined with 2 cm^3 of deionized water, 2 cm^3 of 0.2 M sodium acetate and 500 µL of […] solution. After 16 h of incubation at 37 °C, the reaction was stopped by adding 0.5 cm^3 of acetonitrile. The mixture was quantitatively transferred to a centrifuge tube; it was combined with 10 cm^3 of deionized water and centrifuged for 10 min at 3500 rpm. The supernatant was applied to the Zearala-Test™ column at the rate of 1–2 drops per second. Mycotoxins were eluted from the column with 1.5 mL of methanol; the solvent was evaporated, and the residue was reconstituted with 1 mL of methanol for HPLC analysis.
The concentrations of ZEN and its derivatives were determined by HPLC with the use of the Waters 2695 Separations Module, Waters 2475 Multi λ Fluorescence Detector and Waters 2996 Array Detector. Excitation and emission wavelengths were 274 and 440 nm, respectively. The reverse-phase column was C-18 Nova Pak (3.9 × 150 mm), and the mobile phase was acetonitrile-water-methanol (46:46:8, v/v/v) at a flow rate of 0.5 mL·min^−1. The mycotoxins were quantified by measuring the […] of the peaks based on the relevant calibration curves (correlation coefficient of 0.9996 for ZEN, 0.9989 for α-ZEL and 0.9976 for β-ZEL). Detection limits were determined at 0.001 µg·g^−1 for ZEN, 0.003 µg·g^−1 for α-ZEL and 0.002 µg·g^−1 for β-ZEL. […]

Details of data set [2]: method as in PMID 15972077. As to conditions: animal feed naturally contaminated with ZEN and α-ZEL; cited from earlier work.
For data set [3] the following is noted: relative to parent compound ZEN; cited from earlier work.

Entries after “also recorded” stand apart in the source; their conditions may differ.

Take `C[C@H]1CCC[C@@H](O)CCC/C=C/c2cc(O)cc(O)c2C(=O)O1` [β-ZEL, β-zearalenol]: the “concentrations of ZEN metabolites in the digestive tract and the liver” value in data set [1] is given as “below the sensitivity of the method”.
As to `C[C@H]1CCC[C@H](O)CCC/C=C/c2cc(O)cc(O)c2C(=O)O1` [α-ZEL, α-zearalenol], in data set [2], the “absorbed from the duodenum” value is 65%. In data set [1], the “concentrations of ZEN metabolites in the digestive tract and the liver” value is given as “below the sensitivity of the method”. Also, the “estrogenic activity in comparison to ZEN” value in data set [3] was “three-fold or even four-fold higher; also recorded: three- to four-fold higher”.

Source of the values: paper PMC4549746, “Zearalenone in the Intestinal Tissues of Immature Gilts Exposed per os to Mycotoxins” (Toxins, 2015).
